Article PMC6681021 (Pharmaceutics, 2019)
“And” between values parts separate entries of the source, which are not always exact repeats. Equal entries are not always repeated. Where two headings read alike, the source gives them in different places.

Experiments:
[1] = Pharmacokinetics after oral administration of tofacitinib to rats; assay type: in vivo, Sprague-Dawley rats; settings: for CL renal / Cmax / Tmax / bioavailability: male, Sprague-Dawley; for CL renal / Cmax / Tmax / bioavailability / AUC: rat; for CL renal: plasma and urine; for Cmax / Tmax / bioavailability / AUC: plasma; for bioavailability: dose-normalized oral AUC / AUC of 10 mg/kg iv, read-out: F (bioavailability); for Dose-normalized AUC: normalized to 10 mg/kg; for AUC: male Sprague-Dawley rats
Procedure: The pretreatment and surgical procedures for oral and intravenous administration were similar to those described previously. For oral administration, the rats were fasted overnight with free access to water. The rats were anesthetized with ketamine (200 mg/kg), and their carotid arteries were cannulated using polyethylene tubing (Clay Adams, Parsippany, NJ, USA) for blood sampling. For intravenous administration, the rats were anesthetized with ketamine (200 mg/kg), and their jugular veins and carotid arteries were cannulated for drug administration and blood sampling, respectively. Rats were allowed to recover for 4–5 h after surgical procedures. The rats were not restrained during the experimental period and had free access to water and food.
Blood samples (110–220 μL) were collected via the carotid artery at times 0 (prior to drug administration), 5, 15, 30, 45, 60, 90, 120, 180, 240, 360, 480, 600, and 720 min. Urine and gastrointestinal tract samples were also obtained over 24 h were processed as described above for the corresponding samples collected after intravenous administration.
Two microliters of hydrocortisone (5 mg/mL) and 40 μL of 20% ammonia solution were added to 100 μL aliquots of biological samples and vortex-mixed for 30 s using a vortex mixer. Each solution was extracted with 1.5 mL of ethyl acetate by centrifugation at 12,000 rpm for 5 min. The organic layer was collected and dried (Dry Thermobath, Eyela, Tokyo, Japan) under a gentle stream of nitrogen gas at 40 °C. The samples were reconstituted in 130 μL of 20% acetonitrile, and 50 μL of resuspended samples were analyzed by HPLC [12].
The mobile phase consisted of a 69.5:30.5 (v/v) mixture of 10 mM ammonium acetate buffer (pH 5.0) and acetonitrile, respectively, with a flow rate of 1.0 mL/min. Column effluent was monitored by a UV detector at 287 nm.
(§1) Pharmacokinetic parameters, including AUC, apparent volume of distribution at steady state (Vss), mean residence time (MRT), and time-averaged total body (CL), renal (CLR), and nonrenal (CLNR) clearances, were calculated by noncompartmental analysis (WinNonlin, Pharsight Corporation, Mountain View, CA, USA) using standard methods. AUC values were calculated using the trapezoidal rule–extrapolation method. The peak plasma concentration (Cmax) and time to reach Cmax (Tmax) were obtained directly from the experimental data. The mean values of clearance, terminal half-life, and Vss were calculated using the harmonic mean method.

[2] = Gastric and intestinal first-pass effect: intraportal infusion, intraduodenal and intragastric instillation in rats; assay type: in vivo, Sprague-Dawley rats
Procedure: Rats were fasted overnight with free access to water. Cannulae were inserted into the carotid artery and the cecal vein [13, 14]. […] All sample collection and processing procedures were identical to those described above.
as §1

[3] = Tissue distribution after intravenous administration in rats; assay type: in vivo; settings: Sprague-Dawley, rat; every tissue except brain, mesentery and fat; 30 min and 2 h after iv 10 mg/kg; read-out: Tissue-to-plasma (T/P) ratio
Procedure: Rats were handled and processed as described previously [10]. […] After 30 min and 2 h (n = 4 each), as much blood as possible was collected from the carotid artery. Blood samples were immediately centrifuged, and plasma was collected. The rats were sacrificed by cervical dislocation, approximately 1 g of each brain, fat, heart, kidney, large intestine, liver, lung, mesentery, muscle, small intestine, spleen, and stomach was removed, rinsed with phosphate-buffered solution (pH 7.4), and blotted dry with paper towels to remove any remaining blood. Each tissue sample was added to four volumes of homogenizing buffer, homogenized using a tissue homogenizer (T25 Ultra-Turrax, IKA Labortechnik, Staufen, Germany) and centrifuged at 8000 × g for 10 min.

[4] = Biliary excretion after intravenous infusion in rats; assay type: in vivo, Sprague-Dawley rats; settings: 1-min iv infusion 10 mg/kg, 0–24 h bile, n = 3
Procedure: The jugular vein of each rat was cannulated. The abdomen was opened and the bile duct was cannulated with polyethylene tubing. The incision was closed with surgical sutures and each rat was kept warm under an electric light. Each rat was maintained in the supine position during the entire experiment. […] Bile samples were collected over various time periods, from 0–1, 1–2, 2–4, 4–6, and 6–24 h.

[5] = cited from earlier work
[6] = humans, cited from earlier work
[7] = 30-min intraportal infusion, 10 mg/kg (n = 6)
[8] = Sprague-Dawley, rat, plasma, 10 mg/kg, 30-min intraportal infusion, 10 mg/kg (n = 6)
[9] = Sprague-Dawley, rat, plasma, 10 mg/kg, intraduodenal instillation
[10] = Sprague-Dawley, rat, plasma, po, 10 mg/kg, intragastric instillation
[11] = Sprague-Dawley, rat, plasma, 30-min intraportal infusion, 10 mg/kg (n = 6)

Time to detection in plasma after oral administration ([1]; all four oral doses): ≤ 5 min
Ae0–24 h ([1]; all oral doses): less than 17.2%
F in rats ([1]; based on calculations using the same intravenous and oral doses): 29.1–33.8%
CL renal ([1]; oral 10 mg/kg): 0.696 ± 0.172 L/h/kg
CL renal ([1]; oral 20 mg/kg): 0.418 ± 0.237 L/h/kg
CL renal ([1]; oral 50 mg/kg): 0.457 ± 0.169 L/h/kg
CL renal ([1]; oral 100 mg/kg): 0.202 ± 0.151 L/h/kg
Cmax ([1]; oral 10 mg/kg): 1.13 ± 0.774 µg/mL
Tmax ([1]; oral 10 mg/kg): 15.7 min
bioavailability ([1]; oral 10 mg/kg): 29.1%
Cmax ([1]; oral 20 mg/kg): 3.13 ± 1.27 µg/mL
Tmax ([1]; oral 20 mg/kg): 15.7 min
bioavailability ([1]; oral 20 mg/kg): 39.3%
Cmax ([1]; oral 50 mg/kg): 5.62 ± 2.18 µg/mL
Tmax ([1]; oral 50 mg/kg): 34.4 min
bioavailability ([1]; oral 50 mg/kg): 69.7%
Cmax ([1]; oral 100 mg/kg): 13.1 ± 5.48 µg/mL
Tmax ([1]; oral 100 mg/kg): 170 min
bioavailability ([1]; oral 100 mg/kg): 119%
Ae0–24 h ([1]; oral 10 mg/kg): 11.3 ± 4.60 % of dose
Orally administered dose absorbed from the gastrointestinal tract ([1]; oral 10 mg/kg): approximately 96.8%
Unabsorbed fraction (Funabs) ([1]; oral 10 mg/kg, at 24 h): 3.16%
Dose-normalized AUC ([1]; oral 10 mg/kg): 99.4 µg·min/mL and 99.4 ± 35.5 µg·min/mL
GI24 h (recovered unchanged from entire gastrointestinal tract at 24 h) ([1]; oral 10 mg/kg, 10 mg/kg): 3.16 % of dose and 3.16 ± 5.12 % of dose
Orally administered dose eliminated by first-pass metabolism ([1]; oral 10 mg/kg, 100% − (3.16% + 29.1%)): approximately 67.7%
Ae0–24 h ([1]; oral 20 mg/kg): 10.0 ± 6.51 % of dose
GI24 h (recovered unchanged from entire gastrointestinal tract at 24 h) ([1]; oral 20 mg/kg): 3.13 ± 3.27 % of dose
Dose-normalized AUC ([1]; oral 20 mg/kg): 135 µg·min/mL and 135 ± 26.9 µg·min/mL
Ae0–24 h ([1]; oral 50 mg/kg): 17.2 ± 3.98 % of dose
GI24 h (recovered unchanged from entire gastrointestinal tract at 24 h) ([1]; oral 50 mg/kg): 2.77 ± 3.96 % of dose
Dose-normalized AUC ([1]; oral 50 mg/kg): 238 µg·min/mL and 238 ± 56.0 µg·min/mL
Ae0–24 h ([1]; oral 100 mg/kg): 13.0± 9.47 % of dose
GI24 h (recovered unchanged from entire gastrointestinal tract at 24 h) ([1]; oral 100 mg/kg): 0.772± 0.905 % of dose
Dose-normalized AUC ([1]; oral 100 mg/kg): 407 µg·min/mL and 407 ± 179 µg·min/mL
Slope of plot of AUC versus dose ([1]; oral, dose and AUC ratios based on 10 mg/kg): 4.65
AUC ([1]; oral 10 mg/kg): 1.66 µg·h/mL
AUC ([1]; oral 20 mg/kg): 4.48 µg·h/mL
AUC ([1]; oral 50 mg/kg): 19.9 µg·h/mL
AUC ([1]; oral 100 mg/kg): 67.9 µg·h/mL
AUC after intraduodenal instillation as % of that after intraportal administration ([2]; 10 mg/kg): 50.7%
Ae0–24 h [2, 7]: 5.82 ± 2.32 % of dose
CLNR [2, 7]: 2.3 ± 0.37 L/h/kg
Oral dose absorbed into the systemic circulation ([2]; 50.7–21.3%, 10 mg/kg): 29.4%
CL renal [2, 8]: 0.146 ± 0.0738 L/h/kg
Cmax [2, 8]: 5.18 ± 0.586 µg/mL
Tmax [2, 8]: 27.5 min
AUC ([2]; Sprague-Dawley, rat, plasma, 10 mg/kg, 30-min intraportal infusion, 10 mg/kg (n = 6), fasted): 4.53 µg·h/mL
AUC [2, 9]: 2.3 µg·h/mL
CL renal [2, 9]: 0.343 ± 0.157 L/h/kg
Cmax [2, 9]: 1.55 ± 1.93 µg/mL
Tmax [2, 9]: 38.8 min
AUC [2, 10]: 2.23 µg·h/mL
CL renal [2, 10]: 0.425 ± 0.175 L/h/kg
Cmax [2, 10]: 0.716 ± 0.255 µg/mL
Tmax [2, 10]: 63.8 min
MRT [2, 11]: 53 min
clearance [2, 11]: 2.3 ± 0.508 L/h/kg
half-life ([2]; Sprague-Dawley, rat, plasma, 30-min intraportal infusion, 10 mg/kg (n = 6), read-out: Terminal half-life): 44.8 ± 14.2 min
Vd ([2]; Sprague-Dawley, rat, plasma, 30-min intraportal infusion, 10 mg/kg (n = 6), read-out: Vss): 1.9 ± 0.369 L/kg
Ae0–24 h ([2]; intraduodenal instillation, 10 mg/kg): 8.30 ± 5.10 % of dose
Ae0–24 h ([2]; intragastric instillation, 10 mg/kg): 8.90 ± 3.00 % of dose
Kp [3]: > 1
Excreted in bile [4]: 0.703 ± 0.303 % of the intravenous dose
Structure (SMILES): C[C@@H]1CCN(C(=O)CC#N)C[C@@H]1N(C)c1ncnc2[nH]ccc12 [tofacitinib, 3-[(3R,4R)-4-methyl-3-[methyl-(7H-pyrrolo[2,3-day]pyrimidin-4-l)amino]piperidin-1-yl]-3-oxopropanenitril]
AUC of tofacitinib reduced in pretreated rats ([5]; pretreated with dexamethasone, inducer of CYP3A1/2): 56%
AUC of tofacitinib greater in pretreated rats ([5]; pretreated with fluconazole, inhibitor of CYP2C11): 39%
AUC of tofacitinib greater in pretreated rats ([5]; pretreated with ketoconazole, inhibitor of CYP3A1/2): 46%
AUC of tofacitinib reduced in pretreated rats ([5]; pretreated with rifampin, inducer of CYP2C11): 26%
Terminal half-life [6]: 192 min
Volume of distribution [6]: 87 L
Bound to plasma proteins ([6]; oral): 40%
